{"source": "paper PMC3598914", "about": "“In Vivo Detection of Human TRPV6-Rich Tumors with Anti-Cancer Peptides Derived from Soricidin” (PLoS ONE, 2013)", "molecules": {"B1": {"name": "TRPV6 (protein)", "chain": "MGPLQGDGGPALGGADVAPRLSPVRVWPRPQAPKEPALHPMGLSLPKEKGLILCLWSKFCRWFQRRESWAQSRDEQNLLQQKRIWESPLLLAAKDNDVQALNKLLKYEDCKVHQRGAMGETALHIAALYDNLEAAMVLMEAAPELVFEPMTSELYEGQTALHIAVVNQNMNLVRALLARRASVSARATGTAFRRSPCNLIYFGEHPLSFAACVNSEEIVRLLIEHGADIRAQDSLGNTVLHILILQPNKTFACQMYNLLLSYDRHGDHLQPLDLVPNHQGLTPFKLAGVEGNTVMFQHLMQKRKHTQWTYGPLTSTLYDLTEIDSSGDEQSLLELIITTKKREARQILDQTPVKELVSLKWKRYGRPYFCMLGAIYLLYIICFTMCCIYRPLKPRTNNRTSPRDNTLLQQKLLQEAYMTPKDDIRLVGELVTVIGAIIILLVEVPDIFRMGVTRFFGQTILGGPFHVLIITYAFMVLVTMVMRLISASGEVVPMSFALVLGWCNVMYFARGFQMLGPFTIMIQKMIFGDLMRFCWLMAVVILGFASAFYIIFQTEDPEELGHFYDYPMALFSTFELFLTIIDGPANYNVDLPFMYSITYAAFAIIATLLMLNLLIAMMGDTHWRVAHERDELWRAQIVATTVMLERKLPRCLWPRSGICGREYGLGDRWFLRVEDRQDLNRQRIQRYAQAFHTRGSEDLDKDSVEKLELGCPFSPHLSLPMPSVSRSTSRSSANWERLRQGTLRRDLRGIINRGLEDGESWEYQI"}}, "key": {"human TRPV6 channels": {"target": "T1, human TRPV6 channels (Homo sapiens, UniProt Q9H1D0)", "T1 construct": "containing cDNA for the protein-coding region of TRPV6; expressed in transfected cells; host or cells: HEK-293 cells transiently transfected with pdi-CaT-L (pCAGGS backbone, gift of V. Flockerzi)", "T1 sequence (Q9H1D0 41-765 limits assumed)": "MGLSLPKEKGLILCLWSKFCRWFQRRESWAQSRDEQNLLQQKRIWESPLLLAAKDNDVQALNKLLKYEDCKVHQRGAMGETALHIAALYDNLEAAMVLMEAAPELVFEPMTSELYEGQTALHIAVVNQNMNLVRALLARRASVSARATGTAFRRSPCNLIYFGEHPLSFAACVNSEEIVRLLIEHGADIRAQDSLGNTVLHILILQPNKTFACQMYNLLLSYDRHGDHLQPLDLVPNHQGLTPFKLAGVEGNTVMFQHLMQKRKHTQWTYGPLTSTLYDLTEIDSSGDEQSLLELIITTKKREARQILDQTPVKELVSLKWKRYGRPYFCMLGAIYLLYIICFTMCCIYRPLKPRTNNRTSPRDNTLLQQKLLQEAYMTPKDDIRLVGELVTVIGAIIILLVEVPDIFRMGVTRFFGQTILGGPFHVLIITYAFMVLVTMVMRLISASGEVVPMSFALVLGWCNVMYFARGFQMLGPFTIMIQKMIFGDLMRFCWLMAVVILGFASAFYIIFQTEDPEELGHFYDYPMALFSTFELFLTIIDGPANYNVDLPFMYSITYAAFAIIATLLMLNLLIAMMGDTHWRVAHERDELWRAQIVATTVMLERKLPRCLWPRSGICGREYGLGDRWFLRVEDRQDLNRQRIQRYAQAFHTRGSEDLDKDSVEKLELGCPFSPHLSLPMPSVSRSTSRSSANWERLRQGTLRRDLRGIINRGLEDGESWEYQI", "assay": "whole-cell patch clamp of TRPV6/EGFP transfected HEK-293 cells", "format": "cell-based", "settings": "for reduction of TRPV6 current amplitude / reduction of maximum TRPV6 current amplitude: p<0.05; for Kd: washout not possible under voltage ramp stimulation, Kd estimated, read-out: K1 (Kd estimated to be equal to K1); for reduction of maximum TRPV6 current amplitude: n = 5, successive exposures", "experimental": "Human HEK-293 cells (6–9 passages) were plated in a 24-well plate at a density of 5×10^5 cells per well, 24 hours before transfection. Each well was diluted in serum-free medium and incubated for 5 minutes at room temperature then combined slowly and incubated at room temperature. After a 20 minute incubation, cells were exposed to the transfection complex consisting of 0.5 µg of pdi-CaT-L plasmid DNA (a gift from Dr. V. Flockerzi, Experimentelle und Klinische Pharmakologie und Toxikologie der Universität des Saarlandes) and 1.5 µl lipofectamine 2000 reagent. pdi-CaT-L is a bicistronic expression vector containing cDNA for the protein-coding region of TRPV6 and the mutated Green Fluorescent Protein (S65T; EGPF) separated by an […] (β-actin promoter /KOZAK/TRPV6/IRES/EGFP in pCAGGS). The IRES was derived from encephalomyocarditis virus. Transfection of HEK-293 cells with the bicistronic vector allows for simultaneous production of TRPV6 and EGFP and selection of fluorescent cells producing TRPV6 for the electrophysiology measurements. From previous investigations using this plasmid and other similar plasmids, it was determined that the TRPV6 channel is highly expressed, localized at the membrane surface, glycosylated and constitutively active giving rise to a Ca^2+-invoked inward current [33]–[35].\nWhole-cell patch clamp recordings were performed on HEK-293 cells expressing TRPV6 and EGFP. Transfected cells were readily identified from non-transfected cells using a fluorescent Axiovert 135 microscope […]. The recordings were performed using an Axopatch 1D amplifier controlled and monitored using pClamp 9 software (MDS Analytical Technologies, Sunnyvale, CA, USA). Data sets were digitized at 20 kHz and filtered at 2 kHz. […] The extracellular solution contained: 145 mM NaCl, 10 mM CsCl, 10 mM CaCl2, 2 mM MgCl2, 2.8 mM KCl, 10 mM HEPES and 10 mM glucose with pH adjusted to 7.2 using NaOH.\nTo isolate TRPV6 currents, HEK-293 and transfected HEK-293 cells were voltage-clamped at +50 mV with a 50 ms linear voltage ramp (−110 mV to +90 mV) protocol applied in the presence or absence of a TRPV6 inhibitor, La^3+ ions (10 µM), SOR-C27, SOR-C13 or SOR-C27-Cy5.5. Although the La^3+ ion is a non-specific inhibitor there is currently no known selective inhibitor of the TRPV6 channel. The ramp was averaged over 10 times at 2 s intervals between ramps.\nAnalysis was performed off-line using IGOR (WaveMetrics Inc., Lake Oswego, OR, USA) software. The statistical significance was determined with paired Students' t-test (two-tailed). All values are expressed as mean ± SEM with a p-value of <0.05 considered significant."}, "[1]": {"assay": "solubility in NMR samples", "format": "physicochemical", "settings": "10 mM in 90/10 H2O/D2O, 50 mM potassium phosphate pH 6.6; with 200 mM NaCl; with 100 mM DPC; 2 mM with 100 mM SDS; visual statement, 274 to 308 K", "experimental": "Nuclear magnetic resonance (NMR) spectroscopic data was acquired to determine the conformational structural features of the SOR-C27 peptide under various conditions. A stock solution (sample #1) of 10 mM SOR-C27 was prepared in 90/10 H2O/D2O with 50 mM potassium phosphate buffer at pH 6.6. From sample #1, three additional samples were prepared: #2) stock solution with 200 mM NaCl, #3) stock solution with 100 mM dodecylphosphocholine (DPC) and #4) stock solution diluted to 2 mM with 100 mM sodium dodecylsulfate (SDS)."}, "[2]": {"test_system": "HEK-293 cells transfected with TRPV6", "settings": "low doses; cited from earlier work", "excerpt": "(§1) The link between tumor growth and over-expression of TRPV6 may involve the potentiation of calcium-dependent cell proliferation and inhibition of apoptosis. […] In the LNCaP prostate cancer cell line, up-regulation of TRPV6 augments proliferation and cell survival while retarding apoptosis through a mechanism that appears to involve activation of the nuclear factor of activated T-cell (NFAT) transcription ..."}, "TRPV6": {"test_system": "TRPV6", "settings": "breast cancer cells; cited from earlier work", "excerpt": "as §1"}, "TRPV6 channels": {"test_system": "TRPV6 channels", "settings": "cited from earlier work", "excerpt": "Herein, we described the TRPV6 binding properties of SOR-C13 and SOR-C27 and the ability of these peptides to target human ovarian tumors in ..."}, "[3]": {"settings": "Table 1; no reference given; cited from earlier work", "excerpt": "Table 1 Amino acid sequences of parent soricidin (accession number P0C2P6), SOR-C27 and SOR-C13. | column: Activity"}, "[4]": {"target": "T2, SOR-C27 (soricidin C-terminal peptide) (Blarina brevicauda)", "T2 chain": "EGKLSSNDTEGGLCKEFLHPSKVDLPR", "assay": "whole-cell patch clamp"}, "[5]": {"target": "T3, SOR-C13 (soricidin C-terminal peptide) (Blarina brevicauda)", "T3 chain": "KEFLHPSKVDLPR", "assay": "whole-cell patch clamp"}}, "note": "“Also recorded” adds a separate entry of the source. Residues, ends and D or L forms follow the SMILES beside them.", "data": [{"molecule": "CC(C)C[C@H](NC(=O)[C@H](Cc1ccccc1)NC(=O)[C@H](CCC(=O)O)NC(=O)[C@@H](N)CCCCN)C(=O)N[C@@H](Cc1c[nH]cn1)C(=O)N1CCC[C@H]1C(=O)N[C@@H](CO)C(=O)N[C@@H](CCCCN)C(=O)N[C@H](C(=O)N[C@@H](CC(=O)O)C(=O)N[C@@H](CC(C)C)C(=O)N1CCC[C@H]1C(=O)N[C@@H](CCCNC(=N)N)C(=O)O)C(C)C", "note": "[SOR-C13] (H-KEFLHPSKVDLPR-OH)", "values": [{"measurement": "reduction of TRPV6 current amplitude", "setting": "human TRPV6 channels; 83.5 nM, n = 9, mean ± SEM", "result": "18±4.0", "unit": "%"}, {"measurement": "reduction of TRPV6 current amplitude", "setting": "human TRPV6 channels; 417.5 nM, n = 9, mean ± SEM", "result": "22±4", "unit": "%"}, {"measurement": "reduction of TRPV6 current amplitude", "setting": "human TRPV6 channels; 835 nM, n = 7, mean ± SEM", "result": "24±4", "unit": "%"}, {"measurement": "reduction of TRPV6 current amplitude", "setting": "human TRPV6 channels; 25 µM, n = 7, mean ± SEM", "result": "25±5", "unit": "%"}]}, {"molecule": "CC(C)C[C@H](NC(=O)[C@H](Cc1ccccc1)NC(=O)[C@H](CCC(=O)O)NC(=O)[C@@H](N)CCCCN)C(=O)N[C@@H](Cc1cnc[nH]1)C(=O)N1CCC[C@H]1C(=O)N[C@@H](CO)C(=O)N[C@@H](CCCCN)C(=O)N[C@H](C(=O)N[C@@H](CC(=O)O)C(=O)N[C@@H](CC(C)C)C(=O)N1CCC[C@H]1C(=O)N[C@@H](CCCNC(=N)N)C(=O)O)C(C)C", "note": "[SOR-C13] (H-KEFLHPSKVDLPR-OH)", "values": [{"measurement": "Kd", "setting": "human TRPV6 channels", "result": "14 ± 1.3", "unit": "nM"}]}, {"molecule": "CC(C)C[C@H](NC(=O)CNC(=O)CNC(=O)[C@H](CCC(=O)O)NC(=O)[C@@H](NC(=O)[C@H](CC(=O)O)NC(=O)[C@H](CC(N)=O)NC(=O)[C@H](CO)NC(=O)[C@H](CO)NC(=O)[C@H](CC(C)C)NC(=O)[C@H](CCCCN)NC(=O)CNC(=O)[C@@H](N)CCC(=O)O)[C@@H](C)O)C(=O)N[C@@H](CS)C(=O)N[C@@H](CCCCN)C(=O)N[C@@H](CCC(=O)O)C(=O)N[C@@H](Cc1ccccc1)C(=O)N[C@@H](CC(C)C)C(=O)N[C@@H](Cc1c[nH]cn1)C(=O)N1CCC[C@H]1C(=O)N[C@@H](CO)C(=O)N[C@@H](CCCCN)C(=O)N[C@H](C(=O)N[C@@H](CC(=O)O)C(=O)N[C@@H](CC(C)C)C(=O)N1CCC[C@H]1C(=O)N[C@@H](CCCNC(=N)N)C(=O)O)C(C)C", "note": "[SOR-C27] (H-EGKLSSNDTEGGLCKEFLHPSKVDLPR-OH)", "values": [{"measurement": "reduction of maximum TRPV6 current amplitude", "setting": "human TRPV6 channels; 65.2 nM, mean ± SEM", "result": "17±4", "unit": "%"}, {"measurement": "reduction of maximum TRPV6 current amplitude", "setting": "human TRPV6 channels; 326 nM, mean ± SEM", "result": "27±5", "unit": "%"}, {"measurement": "reduction of maximum TRPV6 current amplitude", "setting": "human TRPV6 channels; 652 nM, mean ± SEM", "result": "31±5", "unit": "%"}, {"measurement": "reduction of maximum TRPV6 current amplitude", "setting": "human TRPV6 channels; 20 µM, mean ± SEM", "result": "34±5", "unit": "%"}, {"measurement": "Kd", "setting": "human TRPV6 channels", "result": "65 ± 1", "unit": "nM"}, {"measurement": "IC50", "setting": "human TRPV6 channels; whole-cell patch clamp, 50 ms voltage ramp -110 to +90 mV, dose-response curve, mean ± SEM, b62/b63, read-out: IC50 (Kd) for reduction of TRPV6 current amplitude", "result": "65 ± 1", "unit": "nM"}, {"measurement": "solubility", "setting": "[1]", "result": "completely soluble in all solutions and under all conditions"}]}, {"molecule": "Clc1ccc(COC(Cn2ccnc2)c2ccc(Cl)cc2Cl)cc1", "note": "(stereo not drawn) [econazole]", "values": [{"measurement": "effect on calcium inflow signals and cell proliferation", "setting": "[2]", "result": "reduced both calcium inflow signals and cell proliferation"}]}, {"molecule": "CC/C(=C(\\c1ccccc1)c1ccc(OCCN(C)C)cc1)c1ccccc1", "note": "[tamoxifen]", "values": [{"measurement": "effect on TRPV6 expression and calcium signaling", "setting": "TRPV6", "result": "reduces expression of TRPV6 and calcium signaling"}]}, {"molecule": "DCSQDCAACSILARPAELNTETCILECEGKLSSNDTEGGLCKEFLHPSKVDLPR [Soricidin]", "values": [{"measurement": "inhibition of TRPV6 calcium channels / calcium uptake", "setting": "TRPV6 channels", "result": "found to inhibit the transient receptor potential of vallinoid type 6 (TRPV6) calcium channels; also recorded: inhibit calcium uptake via TRPV6 channels"}, {"measurement": "Activity", "setting": "[3]", "result": "Pain/ Cancer"}]}, {"molecule": "B1", "values": [{"measurement": "Kd", "setting": "[4]", "result": 65, "unit": "nM"}, {"measurement": "Kd", "setting": "[5]", "result": 14, "unit": "nM"}]}]}
